Results published in publication PMC7531004, “Discovery of gramicidin A analogues with altered activities by multidimensional screening of a one-bead-one-compound library” (Nature Communications, 2020).
Where a SMILES comes first, the peptide text is derived from it. [ ]: non-standard residue; d: D form. The star is where a group is joined. NHCH2CH2OH = OCCN*; For = O=C*

Key:
[1] = H+/Na+ transport assay of bead-derived peptides (one-point); type: biochemical; design: key: relative activity; mean of two control wells = 1.00; settings: bead-derived peptide solution, EYPC/EYPG LUVs;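 note: relative to parent gramicidin A activity set to 1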
Summary of the method: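 Values are normalized fluorescence, with Triton X-100 defining 100% and untreated LUVs 0%, and the two control wells averaging 1.00. Vesicles carried 1.0 mM pyranine and included egg yolk phosphatidylglycerol. Peptides were incubated with them 30 min at room temperature.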

[2] = system: P388 mouse leukemia cells; settings: 92 h
Summary of the method: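 P388 cells at 1 × 10^4 cells/mL (final) were exposed to library peptides (stocks diluted 250-fold in RPMI1640/10% FBS) for 92 h at 37 °C, 5% CO2. Viable cells were counted by WST-1/1-methoxy PMS (4 h), absorbance 415 nm, and expressed as cell viability (%).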

[3] = system: Streptococcus pyogenes SSI-9; experiment: Antibacterial activity assay of bead-derived peptides (three concentrations); type: cell-based; design: key: +++: inhibition by the 640-fold diluted peptide solution; ++: inhibition by the 160-fold diluted solution; +: inhibition by the 40-fold diluted solution; -: no inhibition; settings: S. pyogenes, bead-derived peptide solution, three concentrations
Summary of the method: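 Undiluted, 4-fold and 16-fold DMSO-diluted peptide stocks; S. pyogenes SSI-9, 2 × 10^5 CFU, cation-adjusted MHB (50 mg/L Ca2+, 25 mg/L Mg2+) + 5% laked horse blood; 37 °C, 18 h; readout = cell pellet visible or not.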

For `CC(C)C[C@@H](NC(=O)[C@H](C)NC(=O)[C@H](NC(=O)[C@H](C)NC(=O)CNC(=O)[C@@H](NC=O)C(C)C)C(C)C)C(=O)N[C@H](C(=O)N[C@H](CC(C)C)C(=O)N[C@@H](Cc1c[nH]c2ccccc12)C(=O)N[C@H](CC(C)C)C(=O)N[C@@H](Cc1c[nH]c2ccccc12)C(=O)N[C@@H](C(=O)N[C@@H](Cc1c[nH]c2ccccc12)C(=O)N[C@@H](C(=O)N[C@@H](Cc1c[nH]c2ccccc12)C(=O)NCCO)[C@H](C)O)C(C)C)C(C)C` [compound 5370] (For-VGA[dV]A[dL]V[dL]W[dL]W[dV]W[dT]W-NHCH2CH2OH), the “H+/Na+ transport activity normalized against the value of 1 (1.00)” value (shortened to “H+/Na+ transport activity normalized”) [1] was 1.18, the cell viability/% [2] was 100.0% and the antibacterial activity [3] was “++”.

With `CNC(=O)C[C@@H](NC(=O)[C@H](Cc1c[nH]c2ccccc12)NC(=O)[C@@H](CC(C)C)NC(=O)[C@@H](NC(=O)[C@@H](CC(C)C)NC(=O)[C@H](C)NC(=O)[C@H](NC(=O)[C@H](C)NC(=O)CNC(=O)[C@@H](NC=O)C(C)C)C(C)C)C(C)C)C(=O)N[C@@H](Cc1c[nH]c2ccccc12)C(=O)N[C@@H](C(=O)N[C@@H](Cc1c[nH]c2ccccc12)C(=O)N[C@@H](C(=O)N[C@@H](Cc1c[nH]c2ccccc12)C(=O)NCCO)C(C)C)C(C)C` [compound 5380] (For-VGA[dV]A[dL]V[dL]W[dD](NHMe)W[dV]W[dV]W-NHCH2CH2OH) the “H+/Na+ transport activity normalized” value [1] was 1.05, the cell viability/% [2] was 100.0% and the antibacterial activity [3] was “-”.

With `CC(C)C[C@@H](NC(=O)[C@H](C)NC(=O)CNC(=O)[C@@H](NC=O)C(C)C)C(=O)N[C@@H](C)C(=O)N[C@@H](C(=O)N[C@H](C(=O)N[C@@H](C(=O)N[C@@H](Cc1c[nH]c2ccccc12)C(=O)N[C@@H](C(=O)N[C@@H](Cc1c[nH]c2ccccc12)C(=O)N[C@H](CC(C)C)C(=O)N[C@@H](Cc1c[nH]c2ccccc12)C(=O)N[C@@H](C(=O)N[C@@H](Cc1c[nH]c2ccccc12)C(=O)NCCO)C(C)C)C(C)C)C(C)C)C(C)C)C(C)C` [compound 5393] (For-VGA[dL]A[dV]V[dV]W[dV]W[dL]W[dV]W-NHCH2CH2OH) the “H+/Na+ transport activity normalized” value [1] was 1.32, the cell viability/% [2] was 100.0% and the antibacterial activity [3] was “+”.

For `CC(C)C[C@@H](NC(=O)[C@H](C)NC(=O)[C@H](NC(=O)[C@H](C)NC(=O)CNC(=O)[C@@H](NC=O)C(C)C)C(C)C)C(=O)N[C@H](C(=O)N[C@@H](C(=O)N[C@@H](Cc1c[nH]c2ccccc12)C(=O)N[C@@H](C(=O)N[C@@H](Cc1c[nH]c2ccccc12)C(=O)N[C@H](CC(C)C)C(=O)N[C@@H](Cc1c[nH]c2ccccc12)C(=O)N[C@H](CC(C)C)C(=O)N[C@@H](Cc1c[nH]c2ccccc12)C(=O)NCCO)C(C)C)C(C)C)C(C)C` [compound 5463] (For-VGA[dV]A[dL]V[dV]W[dV]W[dL]W[dL]W-NHCH2CH2OH), the “H+/Na+ transport activity normalized” value [1] was 1.11, the cell viability/% [2] was 100.0% and the antibacterial activity [3] was “++”.

With `CC(C)C[C@@H](NC(=O)[C@H](C)NC(=O)CNC(=O)[C@@H](NC=O)C(C)C)C(=O)N[C@@H](C)C(=O)N[C@@H](C(=O)N[C@H](C(=O)N[C@@H](C(=O)N[C@@H](Cc1c[nH]c2ccccc12)C(=O)N[C@@H](C(=O)N[C@@H](Cc1c[nH]c2ccccc12)C(=O)N[C@H](CC(C)C)C(=O)N[C@@H](Cc1c[nH]c2ccccc12)C(=O)N[C@H](CC(C)C)C(=O)N[C@@H](Cc1c[nH]c2ccccc12)C(=O)NCCO)C(C)C)[C@H](C)O)C(C)C)C(C)C` [compound 5482] (For-VGA[dL]A[dV]V[dT]W[dV]W[dL]W[dL]W-NHCH2CH2OH) the “H+/Na+ transport activity normalized” value [1] was 1.25, the cell viability/% [2] was 100.0% and the antibacterial activity [3] was “-”.

In the case of `CC(C)C[C@@H](NC(=O)[C@H](C)NC(=O)CNC(=O)[C@@H](NC=O)C(C)C)C(=O)N[C@@H](C)C(=O)N[C@H](CC(C)C)C(=O)N[C@H](C(=O)N[C@@H](C(=O)N[C@@H](Cc1c[nH]c2ccccc12)C(=O)N[C@@H](C(=O)N[C@@H](Cc1c[nH]c2ccccc12)C(=O)N[C@@H](C(=O)N[C@@H](Cc1c[nH]c2ccccc12)C(=O)N[C@@H](C(=O)N[C@@H](Cc1c[nH]c2ccccc12)C(=O)NCCO)C(C)C)C(C)C)C(C)C)C(C)C)C(C)C` [compound 5488] (For-VGA[dL]A[dL]V[dV]W[dV]W[dV]W[dV]W-NHCH2CH2OH), the “H+/Na+ transport activity normalized” value [1] is reported as 1.23, the cell viability/% [2] is reported as 36.4% and the antibacterial activity [3] is reported as “+”.

For `CNC(=O)C[C@@H](NC(=O)[C@@H](NC(=O)[C@@H](CC(C)C)NC(=O)[C@H](C)NC(=O)[C@@H](CC(C)C)NC(=O)[C@H](C)NC(=O)CNC(=O)[C@@H](NC=O)C(C)C)C(C)C)C(=O)N[C@@H](Cc1c[nH]c2ccccc12)C(=O)N[C@H](CC(C)C)C(=O)N[C@@H](Cc1c[nH]c2ccccc12)C(=O)N[C@H](CC(C)C)C(=O)N[C@@H](Cc1c[nH]c2ccccc12)C(=O)N[C@@H](C(=O)N[C@@H](Cc1c[nH]c2ccccc12)C(=O)NCCO)C(C)C` [compound 5491] (For-VGA[dL]A[dL]V[dD](NHMe)W[dL]W[dL]W[dV]W-NHCH2CH2OH), the “H+/Na+ transport activity normalized” value [1] was 1.24, the cell viability/% [2] was 100.0% and the antibacterial activity [3] was “-”.

For `CC(C)C[C@@H](NC(=O)[C@H](C)NC(=O)CNC(=O)[C@@H](NC=O)C(C)C)C(=O)N[C@@H](C)C(=O)N[C@H](CC(C)C)C(=O)N[C@H](C(=O)N[C@H](CC(C)C)C(=O)N[C@@H](Cc1c[nH]c2ccccc12)C(=O)N[C@@H](C(=O)N[C@@H](Cc1c[nH]c2ccccc12)C(=O)N[C@H](CC(C)C)C(=O)N[C@@H](Cc1c[nH]c2ccccc12)C(=O)N[C@@H](C(=O)N[C@@H](Cc1c[nH]c2ccccc12)C(=O)NCCO)[C@H](C)O)C(C)C)C(C)C` [compound 5508] (For-VGA[dL]A[dL]V[dL]W[dV]W[dL]W[dT]W-NHCH2CH2OH), the “H+/Na+ transport activity normalized” value [1] was 1.19, the cell viability/% [2] was 100.0% and the antibacterial activity [3] was “-”.

In the case of `CC(C)C[C@@H](NC(=O)[C@H](C)NC(=O)[C@H](NC(=O)[C@H](C)NC(=O)CNC(=O)[C@@H](NC=O)C(C)C)[C@H](C)O)C(=O)N[C@H](C(=O)N[C@@H](C(=O)N[C@@H](Cc1c[nH]c2ccccc12)C(=O)N[C@H](CC(C)C)C(=O)N[C@@H](Cc1c[nH]c2ccccc12)C(=O)N[C@H](CC(C)C)C(=O)N[C@@H](Cc1c[nH]c2ccccc12)C(=O)N[C@@H](C(=O)N[C@@H](Cc1c[nH]c2ccccc12)C(=O)NCCO)C(C)C)C(C)C)C(C)C` [compound 5522] (For-VGA[dT]A[dL]V[dV]W[dL]W[dL]W[dV]W-NHCH2CH2OH), the “H+/Na+ transport activity normalized” value [1] is reported as 1.27, the cell viability/% [2] is reported as 100.0% and the antibacterial activity [3] is reported as “-”.

With `CC(C)C[C@@H](NC(=O)[C@H](Cc1c[nH]c2ccccc12)NC(=O)[C@H](NC(=O)[C@H](Cc1c[nH]c2ccccc12)NC(=O)[C@@H](CC(C)C)NC(=O)[C@@H](NC(=O)[C@H](NC(=O)[C@H](C)NC(=O)[C@H](NC(=O)[C@H](C)NC(=O)CNC(=O)[C@@H](NC=O)C(C)C)C(C)C)C(C)C)C(C)C)C(C)C)C(=O)N[C@@H](Cc1c[nH]c2ccccc12)C(=O)N[C@@H](C(=O)N[C@@H](Cc1c[nH]c2ccccc12)C(=O)NCCO)C(C)C` [compound 5526] (For-VGA[dV]A[dV]V[dL]W[dV]W[dL]W[dV]W-NHCH2CH2OH) the “H+/Na+ transport activity normalized” value [1] was 1.17, the cell viability/% [2] was 100.0% and the antibacterial activity [3] was “+”.

In the case of `CNC(=O)C[C@@H](NC(=O)[C@H](Cc1c[nH]c2ccccc12)NC(=O)[C@@H](CC(C)C)NC(=O)[C@H](Cc1c[nH]c2ccccc12)NC(=O)[C@H](NC(=O)[C@H](Cc1c[nH]c2ccccc12)NC(=O)[C@@H](CC(C)C)NC(=O)[C@@H](NC(=O)[C@H](NC(=O)[C@H](C)NC(=O)[C@H](NC(=O)[C@H](C)NC(=O)CNC(=O)[C@@H](NC=O)C(C)C)C(C)C)C(C)C)C(C)C)C(C)C)C(=O)N[C@@H](Cc1c[nH]c2ccccc12)C(=O)NCCO` [compound 5538] (For-VGA[dV]A[dV]V[dL]W[dV]W[dL]W[dD](NHMe)W-NHCH2CH2OH), the “H+/Na+ transport activity normalized” value [1] is reported as 1.06, the cell viability/% [2] is reported as 100.0% and the antibacterial activity [3] is reported as “-”.

With `CC(C)C[C@@H](NC(=O)[C@H](Cc1c[nH]c2ccccc12)NC(=O)[C@H](NC(=O)[C@@H](NC(=O)[C@H](NC(=O)[C@H](C)NC(=O)[C@H](NC(=O)[C@H](C)NC(=O)CNC(=O)[C@@H](NC=O)C(C)C)C(C)C)C(C)C)C(C)C)C(C)C)C(=O)N[C@@H](Cc1c[nH]c2ccccc12)C(=O)N[C@@H](C(=O)N[C@@H](Cc1c[nH]c2ccccc12)C(=O)N[C@@H](C(=O)N[C@@H](Cc1c[nH]c2ccccc12)C(=O)NCCO)C(C)C)C(C)C` [compound 5570] (For-VGA[dV]A[dV]V[dV]W[dL]W[dV]W[dV]W-NHCH2CH2OH) the “H+/Na+ transport activity normalized” value [1] was 1.26, the cell viability/% [2] was 96.8% and the antibacterial activity [3] was “++”.

With `CNC(=O)C[C@@H](NC(=O)[C@H](Cc1c[nH]c2ccccc12)NC(=O)[C@H](NC(=O)[C@H](Cc1c[nH]c2ccccc12)NC(=O)[C@H](NC(=O)[C@H](Cc1c[nH]c2ccccc12)NC(=O)[C@@H](CC(C)C)NC(=O)[C@@H](NC(=O)[C@H](NC(=O)[C@H](C)NC(=O)[C@H](NC(=O)[C@H](C)NC(=O)CNC(=O)[C@@H](NC=O)C(C)C)C(C)C)C(C)C)C(C)C)C(C)C)C(C)C)C(=O)N[C@@H](Cc1c[nH]c2ccccc12)C(=O)NCCO` [compound 5604] (For-VGA[dV]A[dV]V[dL]W[dV]W[dV]W[dD](NHMe)W-NHCH2CH2OH) the “H+/Na+ transport activity normalized” value [1] was 1.03, the cell viability/% [2] was 69.7% and the antibacterial activity [3] was “-”.
